Experimental data published in patent publication US10993957B2 (NuCana plc, priority 2011, dated 2021).
Where two headings read alike, the source gives them in different places.

Key:
[1] = Stability in human serum by in situ 31P NMR; format: in vitro ADME; settings: 37° C., after 12 hours and 30 minutes
Description: The stability of the prodrug CPF-373 in the presence of human serum was studied using in situ ^31P NMR (202 MHz). The ProTide CPF-373 (1) (5.0 mg) was dissolved in DMSO (0.05 mL) and D2O (0.15 mL). Then the sample was transferred into an NMR tube, which was inserted in the NMR chamber at 37° C. (with enough solvent to obtain a control NMR reading of the blank). Then 0.3 ml human serum was quickly added to the sample in the NMR tube. NMR experiments were programmed to record data every 15 minutes for 12 hours and 30 minutes. Because of excess noise and poor shimming profiles (most likely due to the biological media and concentration), individual spectra were further processed. After normal Fourier transform processing, each spectrum was deconvoluted (Lorentz-Gauss deconvolution) to reveal solely the frequency and area of spectral peaks without the baseline. Data recorded were processed and analysed with the Bruker Topspin 2.1 program.
Chemical stability studies on the prodrug CPF-373 (1) have been performed by exposing the compound to human serum and to aqueous buffers (pH 1.0 and 8.0) using in situ ^31P NMR. […]
The stability of compound CPF 386 in the presence of human serum was investigated using in situ ^31P NMR. A control ^31P NMR data of compound CPF 386 in DMSO and D2O were recorded. […] The ^31P NMR data were recorded every 15 minutes over 14 h. […]

[2] = tested on: L1210/0; test: Cytostatic assay, L1210/0 cells; format: cell-based, murine; settings: Mus musculus; for IC50: read-out: IC50 L1210/0
Description: The cell lines employed were L1210/0 (a leukemia cell line), FM3A/0 (a breast cancer cell line), Cem/0 (an acute lymphoblastic leukemia cell line) and HeLa (a cervical cell line).

[3] = Stability in buffer at pH 8 by 31P NMR; format: physicochemical; settings: 14 hours
Description: The stability of the prodrug CPF-373 towards hydrolysis at pH=8 was studied using in situ ^31P NMR (202 MHz). The ProTide CPF-373 (1) (4.9 mg) was dissolved in MeOD (0.1 mL) after which 0.5 mL buffer (pH=8) (prepared from a solution of 0.1 M Na2HPO4, which was adjusted by 0.1 M HCl) was added. Then the sample was transferred into an NMR tube, and a ^31P NMR experiment was performed at 37° C. recording the data every 12 minutes for 14 hours. Data were processed and analysed with the Bruker Topspin 2.1 program.
A chemical hydrolysis was evaluated under experimental conditions at pH 1 and pH 8 and monitored by ^31P NMR. During the assay (14 h) under acidic conditions (pH 1) only two peaks representing the two diastereoisomers were recorded.

[4] = biological target: T1, human TP (Homo sapiens, UniProt P19971); test: Phosphorolysis by human TP, HPLC; settings: 100 μM compound, room temperature, 0-40 min
T1 sequence (P19971 11-482): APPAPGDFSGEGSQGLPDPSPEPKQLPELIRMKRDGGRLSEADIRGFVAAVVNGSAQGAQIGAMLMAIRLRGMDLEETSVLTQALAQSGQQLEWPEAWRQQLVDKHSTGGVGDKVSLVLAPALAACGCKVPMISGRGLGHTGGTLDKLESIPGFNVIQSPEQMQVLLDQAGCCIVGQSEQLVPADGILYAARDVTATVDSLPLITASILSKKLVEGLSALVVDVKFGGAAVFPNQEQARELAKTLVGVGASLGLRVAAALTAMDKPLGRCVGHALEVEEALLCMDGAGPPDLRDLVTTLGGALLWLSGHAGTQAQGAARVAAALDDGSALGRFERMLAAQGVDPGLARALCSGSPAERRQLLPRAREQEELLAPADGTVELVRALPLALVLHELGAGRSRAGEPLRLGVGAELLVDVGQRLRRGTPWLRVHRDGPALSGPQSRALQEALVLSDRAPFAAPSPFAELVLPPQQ
Description: (§1) Reaction mixtures containing 100 μM test compound and recombinant TP or UP (human TP: 8.6 ng/μL; E. coli TP: 3.0 ng/μL; human UP: 4 ng/mL) in a total volume of 500 μL reaction buffer (10 mM TrisHCl; 300 μM NaCl; 1 mM EDTA; 2 mM KH2PO4/K2HPO4) were incubated at room temperature. At different time points (i.e. 0, 20, 40 min) 100 μL aliquots of the reaction mixtures were withdrawn and heated at 95° C. for 3 min to inactivate the enzyme. […] The separation of Urd from uracil was performed by a linear gradient from 100% separation buffer (see above) to 60% separation buffer+40% acetonitrile (3 min 100% separation buffer; 6 min linear gradient of 100% separation buffer to 60% separation buffer+40% acetonitrile; 6 min 60% separation buffer+40% acetonitrile, followed by equilibration at 100% separation buffer).

[5] = biological target: human UP (Homo sapiens, UniProt Q16831); test: Phosphorolysis by human UP, HPLC; settings: 100 μM compound, room temperature, 0-40 min
Sequence of human UP (Q16831 whole entry): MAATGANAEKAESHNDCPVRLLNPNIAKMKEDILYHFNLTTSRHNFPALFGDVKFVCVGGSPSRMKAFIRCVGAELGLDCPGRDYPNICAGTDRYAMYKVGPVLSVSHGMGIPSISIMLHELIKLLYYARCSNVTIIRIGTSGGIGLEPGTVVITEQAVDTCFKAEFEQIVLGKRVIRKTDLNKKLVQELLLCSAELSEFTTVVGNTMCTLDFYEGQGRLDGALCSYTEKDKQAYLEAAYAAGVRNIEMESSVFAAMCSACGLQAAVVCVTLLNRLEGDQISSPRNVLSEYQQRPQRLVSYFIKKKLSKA
Description: as §1

C[C@H](NP(=O)(OC[C@H]1O[C@@H](n2cc(F)c(=O)[nH]c2=O)CC1O)Oc1cccc2ccccc12)C(=O)OCc1ccccc1 (stereo partly drawn) [CPF 373, 5-Fluoro-2′deoxyuridine-5′-O-[1-naphthyl (benzoxy-L-alaninyl)] phosphate]
unchanged compound after incubation in human serum [1]: 73% | CC50 ([2]; L1210/0, Table 2, mycoplasma negative cells, read-out: CC50 L1210): 11 nM | IC50 ([2]; L1210/0, Table 3): 11 nM | IC50 ([2]; L1210/0, Table 6): 11 ± 7 nM | IC50 ([2]; L1210/0, Table 7): 11 ± 9 nM | Stability towards hydrolysis at pH 8 [3]: full stability | Phosphorolysis by human TP [4]: fully stable | Phosphorolysis by human UP [5]: not affected
